Assay in all cases: inhibition of tumour cell growth, NCI panel, 48 h
The test system of assay [1] is NCI-H522.
The subject of assay [2] is IGROV-1.
For assay [3], the system named is NCI/ADR-RES.
Assay [4] relates to NCI-H23.
Assay [5] concerns DU-145.
Assay [6] concerns SN12C.
Assay [7] relates to SW-620.
The subject of assay [8] is ACHN.
The test system of assay [9] is MOLT-4.
For assay [10], the system named is OVCAR-5.
The test system of assay [11] is KM12.
Assay [12] concerns M14.
The subject of assay [13] is NCI-H226.
Assay [14] concerns CAKI-1.
For assay [15], the system named is A549.
In assay [16] the test system is LOX IMVI.
Assay [17] concerns UACC-257.
Assay [18] has as its system U-251.
Assay [19] relates to RPMI-8226.
The test system of assay [20] is LXFL 529.

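Five concentrations, 48 hours, 96-well plates. GI50 = concentration required for 50% inhibition of growth.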 Calls of active or inactive are those of the source. Cut-off read from the data, not from the text of the source: active = GI50 up to about 1.1 µM and inactive = higher.

As for `CC(=O)C(C)CCOC1(C)OCCC1C` (stereo unspecified), the GI50 in [1], in assay [2], in [3], in assay [4], in [5] and in [6] was > 100 µM (inactive) each time. The GI50 in [7], in assay [8], in [9], in assay [10], in [11] and in assay [12] was > 100 µM (inactive) each time. Moreover, the GI50 in [13], in assay [14], in assay [15], in assay [16], in [17] and in assay [18] was > 100 µM (inactive) throughout. Moreover, in assay [19], the GI50 was > 100 µM (inactive).
As to `Nc1ccc(C(=O)N/C(=C\c2cccc([N+](=O)[O-])c2)c2nc3cc(Cl)ccc3[nH]2)cc1`, the GI50 in [20] was 31 µM (inactive); in assay [1], > 100 µM (inactive); in assay [2] it was > 100 µM (inactive); in assay [4], > 100 µM (inactive); in assay [6], > 100 µM (inactive); in assay [7], > 100 µM (inactive). Further, the GI50 in assay [8] was > 100 µM (inactive); in assay [9], > 100 µM (inactive); in [10], > 100 µM (inactive); in assay [11], > 100 µM (inactive); in [12], 74.3 µM (inactive); in assay [14] it was 77.6 µM (inactive). Besides, the GI50 in assay [15] is 77.3 µM (inactive); in assay [18] it was > 100 µM (inactive).
As for `C=CCN(N=O)C(=O)N(CCCC(NC(C)=O)C(=O)NCc1ccccc1)Cc1ccccc1` (stereo unspecified), the GI50 in [20] was 46.1 µM (inactive); in assay [1], 21.4 µM (inactive); in assay [2] it was > 100 µM (inactive); in assay [4], > 100 µM (inactive); in [6], 67.6 µM (inactive); in assay [7] it was 61.4 µM (inactive). Moreover, the GI50 in assay [8] was 54.7 µM (inactive); in assay [9], 16.9 µM (inactive); in assay [10], > 100 µM (inactive); in assay [11], 42.4 µM (inactive); in [12], 38.4 µM (inactive); in [14], 30.5 µM (inactive). Besides, the GI50 in assay [15] was 61.9 µM (inactive); in assay [16], 46.9 µM (inactive); in [17], 57.7 µM (inactive); in assay [18], 78.7 µM (inactive); in assay [19], 18.2 µM (inactive).
As for `CCOc1ccc(/N=C/c2cccc3cccnc23)cc1`, the GI50 in [20] is 13.2 µM (inactive); in assay [2], > 100 µM (inactive); in assay [4] it was > 100 µM (inactive); in [6] it was > 100 µM (inactive); in [7] it was 50.5 µM (inactive); in assay [8], > 100 µM (inactive). Further, the GI50 in assay [9] is 45.3 µM (inactive); in assay [10], > 100 µM (inactive); in [11], 39.8 µM (inactive); in assay [12] it was 44.7 µM (inactive); in assay [13], > 100 µM (inactive); in assay [14], > 100 µM (inactive). In addition, the GI50 in assay [15] was > 100 µM (inactive); in assay [17], > 100 µM (inactive); in assay [18] it was > 100 µM (inactive); in [19], 30.3 µM (inactive).
As to `CC(=O)CC1(O)C(=O)c2c(Br)sc(Br)c2C1=O`, the GI50 in assay [1] was 18.4 µM (inactive); in assay [2], 17 µM (inactive); in assay [3], 36.5 µM (inactive); in assay [4] it was 19.5 µM (inactive); in assay [5] it was 42.8 µM (inactive); in assay [6] it was 19.4 µM (inactive). Moreover, the GI50 in assay [7] was 25.1 µM (inactive); in assay [8], 34.3 µM (inactive); in assay [9] it was 32.4 µM (inactive); in assay [10], 17.6 µM (inactive); in [11], 34.3 µM (inactive); in assay [12], 17.8 µM (inactive). Further, the GI50 in assay [13] is 65.6 µM (inactive); in assay [14], 17.3 µM (inactive); in [15], 58.1 µM (inactive); in assay [16], 17.7 µM (inactive); in [17] it was 19.6 µM (inactive); in [18] it was 24 µM (inactive). For the same molecule, in assay [19], the GI50 is 31.3 µM (inactive).
Regarding `O=S(=O)(O)c1ccc(/N=N/c2ccc(/N=N/c3c(O)ccc4ccccc34)cc2)cc1`, the GI50 is > 100 µM (inactive) in [1]; 38.6 µM (inactive) in [2]; > 100 µM (inactive) in [3]; > 94.2 µM (inactive) in [4]; > 89.3 µM (inactive) in assay [5]; > 100 µM (inactive) in assay [6]. The GI50 in assay [7] is > 100 µM (inactive); in assay [8], > 100 µM (inactive); in assay [9] it was > 100 µM (inactive); in assay [10], > 100 µM (inactive); in [11] it was 98.6 µM (inactive); in assay [12], > 100 µM (inactive). Besides, the GI50 in [13], in assay [14], in assay [15], in assay [16], in [17] and in assay [18] was > 100 µM (inactive) in each case. The GI50 in assay [19] is > 100 µM (inactive).
With `C=CCN(N=O)C(=O)N(CCC)CCCC(NC(C)=O)C(=O)NCc1ccccc1` (stereo unspecified), the GI50 in assay [20], in assay [1], in [2], in assay [4], in assay [6] and in assay [7] was > 100 µM (inactive) each time. Moreover, the GI50 in assay [8], in assay [9], in assay [10], in [11], in [12] and in [14] was > 100 µM (inactive) in each case. Also, the GI50 in [15], in [16], in [17], in assay [18] and in assay [19] was > 100 µM (inactive) in each case.
For `CCOC(=O)CC1(Cc2ccc(OCc3ccccc3)cc2)C(=O)OC(c2ccccc2)N1C(=O)c1ccccc1` (stereo unspecified), the GI50 in [1], in assay [2], in [3], in assay [4], in [5] and in assay [6] was > 100 µM (inactive) each time. Besides, the GI50 in assay [7], in assay [8], in assay [9], in assay [10], in assay [11] and in assay [12] was > 100 µM (inactive) throughout. The GI50 in [13], in assay [14], in [15], in assay [16], in [17] and in assay [18] was > 100 µM (inactive) throughout. In addition, the GI50 in assay [19] was > 100 µM (inactive).
Consider `CC1CC(c2ccccc2)=Nc2ccccc2S1(=O)=O` (stereo unspecified), for which the GI50 in assay [20] is 15.3 µM (inactive); in assay [1] it was 17.3 µM (inactive); in assay [2], 17.7 µM (inactive); in assay [4] it was 16.6 µM (inactive); in assay [6], 16.6 µM (inactive); in assay [7], 16.2 µM (inactive). In addition, the GI50 in assay [8] was 16 µM (inactive); in assay [9] it was 16.8 µM (inactive); in [10] it was 18.6 µM (inactive); in [11] it was 16.3 µM (inactive); in [12], 20.7 µM (inactive); in [14], 22 µM (inactive). Besides, the GI50 in assay [15] was 23.6 µM (inactive); in assay [16], 17.3 µM (inactive); in assay [17], 11.6 µM (inactive); in assay [18], 18.1 µM (inactive); in assay [19], 2.16 µM (inactive).
In the case of `CN(C)CCNC(=O)c1ccccc1Nc1c(Cl)cccc1Cl`, the GI50 in [20] is 17.7 µM (inactive); in assay [2], 18.2 µM (inactive); in [4], 17.1 µM (inactive); in assay [6] it was 15.1 µM (inactive); in [7] it was 14.1 µM (inactive); in assay [8], 8.75 µM (inactive). Moreover, the GI50 in [9] is 13.1 µM (inactive); in [10], 10.4 µM (inactive); in assay [12], 15.4 µM (inactive); in assay [13], 11.5 µM (inactive); in assay [15], 10.9 µM (inactive); in assay [16], 12.8 µM (inactive). For the same molecule, the GI50 in assay [17] was 5.75 µM (inactive); in [18] it was 11.6 µM (inactive); in [19] it was 11.9 µM (inactive).
As to `C/C(=C\[C@H]1C[C@@H]([C@@H]2CC[C@]34C[C@]23C=C[C@@H]2[C@@]3(C)CC=C5C[C@@H](c6ccccc6)OC[C@]5(C)[C@@H]3C[C@@H](O)[C@]24C)C(=O)O1)CO` [DICHAPETALIN A], the GI50 in [1] was 2.88 µM (inactive); in assay [2], 2.92 µM (inactive); in [3], 3.08 µM (inactive); in [4] it was 1.19 µM (inactive); in [5] it was 10.2 µM (inactive); in assay [6], 1.91 µM (inactive). The GI50 in [7] is 2.72 µM (inactive); in assay [8] it was 3.33 µM (inactive); in assay [9], 1.59 µM (inactive); in assay [10], 9.82 µM (inactive); in [11], 2.45 µM (inactive); in assay [12], 2.77 µM (inactive). For the same molecule, the GI50 was 14.9 µM (inactive) in assay [13]; 2.08 µM (inactive) in [14]; 2.79 µM (inactive) in assay [15]; 1.52 µM (inactive) in assay [16]; 1.96 µM (inactive) in assay [17]; 1.04 µM (active) in assay [18]. In addition, the GI50 in [19] is 0.624 µM (active).
